According to patent US20250127905A1, “GLUTARIMIDE COMPOUND AND USE THEREOF” (MEDSHINE DISCOVERY INC., priority 2021, published 2025):
Structures can show the parent of a compound that is named as a salt.

How the values were obtained:
[1] = Pharmacokinetic evaluation in Beagles; assay type: in vivo
Protocol: (§1) In this study, male Beagles were selected as test animals, and LC/MS/MS method was used to quantify plasma concentrations of the test compound intravenously injected or intragastrically administered to Beagles at different time points, so as to evaluate the pharmacokinetic profile of the test drug in Beagles.
• Beagles (male, 9 to 11 kg, Jiangsu Yadong Institute of Experimental Animals Co., Ltd.).
A clarified solution or suspension of the test compound was injected into Beagles (feeding) via the tail vein (vehicle: 5% DMSO/10% Solutol/85% H2O), or intragastrically administered into Beagles (feeding). For intravenous injection, 1 mL of blood was collected from the forelimb vein at 0 h (pre-administration) and 0.083 h, 0.25 h, 0.5 h, 1 h, 2 h, 4 h, 6 h, 8 h, and 24 h after administration, and anticoagulated with EDTA-2K. The mixture was thoroughly vortexed and mixed, and centrifuged at 6000 g for 3 minutes at 2 to 8° C. For oral administration, 1 mL of blood was collected from the forelimb vein at 0 h (pre-administration) and 0.083 h, 0.25 h, 0.5 h, 1 h, 2 h, 4 h, 6 h, 8 h, and 24 h after administration, and anticoagulated with EDTA-2K. The mixture was thoroughly vortexed and mixed, and centrifuged at 6000 g for 3 minutes at 2 to 8° C. Plasma concentrations were determined by LC-MS/MS method, and relevant pharmacokinetic parameters were calculated using Phoenix WinNonlin 8.2.0 pharmacokinetic software with non-compartmental model linear-log trapezoidal method.

[2] = Pharmacokinetic evaluation in cynomolgus monkeys; assay type: in vivo
Excerpt: as §1, with “cynomolgus monkeys” for “Beagles”, “cynomolgus monkeys.” for “Beagles.”
Cynomolgus monkeys (male, 2 to 5 kg, Hainan Jingang Biotech Co., Ltd.).
A clarified solution of the test compound was slowly injected into cynomolgus monkeys (feeding) via the peripheral vein (vehicle: 5% DMSO/10% Solutol/85% H2O), or intragastrically administered into cynomolgus monkeys (feeding). For intravenous injection, 0.5 mL of blood was collected from the peripheral vein at 0 h (pre-administration) and 0.083 h, 0.25 h, 0.5 h, 1 h, 2 h, 4 h, 6 h, 8 h, and 24 h after administration, placed in an anticoagulant tube added with EDTA-2K, and centrifuged at 3200 g for 10 minutes at 2 to 8° C. to separate the supernatant. For oral administration, 0.5 mL of blood was collected from the peripheral vein at 0 h (pre-administration) and 0.083 h, 0.25 h, 0.5 h, 1 h, 2 h, 4 h, 6 h, 8 h, and 24 h after administration, placed in an anticoagulant tube added with EDTA-2K, and centrifuged at 3200 g for 10 minutes at 2 to 8° C. to separate the supernatant. Plasma concentrations were determined by LC-MS/MS method, and relevant pharmacokinetic parameters were calculated using Phoenix WinNonlin 6.3 pharmacokinetic software with non-compartmental model linear-log trapezoidal method.

[3] = Intragastric administration (3 mg/kg)
[4] = Intravenous injection (0.5 mg/kg)
[5] = Intragastric administration (5 mg/kg)

Area under the drug-time curve (0-inf) [1, 3]: 1.13 µM·h
Peak concentration [1, 3]: 0.12 µM
Time to peak concentration [1, 3]: 4.67 h
Area under the drug-time curve (0-inf) [1, 4]: 0.27 µM·h
clearance ([1]; male, beagle, dog, plasma, Intravenous injection (0.5 mg/kg)): 37.5 mL/min/kg
Vd ([1]; male, beagle, dog, plasma, Intravenous injection (0.5 mg/kg), read-out: Apparent volume of distribution): 8.44 L/kg
half-life ([1]; male, beagle, dog, plasma, Intravenous injection (0.5 mg/kg), read-out: Elimination half-life (converted)): 176 min
bioavailability ([1]; male, beagle, dog, plasma, oral, IV 0.5 mg/kg, intragastric 3 mg/kg, read-out: Bioavailability F): 70.3%
Area under the drug-time curve (0-inf) [2, 5]: 1.14 µM·h
Peak concentration [2, 5]: 0.14 µM
Time to peak concentration [2, 5]: 4.0 h
Area under the drug-time curve (0-inf) [2, 4]: 0.21 µM·h
clearance ([2]; male, cynomolgus monkey, plasma, Intravenous injection (0.5 mg/kg)): 48.5 mL/min/kg
Vd ([2]; male, cynomolgus monkey, plasma, Intravenous injection (0.5 mg/kg), read-out: Apparent volume of distribution): 8.83 L/kg
half-life ([2]; male, cynomolgus monkey, plasma, Intravenous injection (0.5 mg/kg), read-out: Elimination half-life (converted)): 140 min
bioavailability ([2]; male, cynomolgus monkey, plasma, oral, IV 0.5 mg/kg, intragastric 5 mg/kg, read-out: Bioavailability F): 55.5%
Structure (SMILES): O=C1CCC(c2noc3c(NC(=O)CN4CCN(C[C@H]5CC[C@H](n6cc(NC(=O)c7cnn8ccc(N9C[C@H]%10C[C@@H]9CO%10)nc78)c(C(F)F)n6)CC5)CC4)cccc23)C(=O)N1 (stereo partly shown) [Hydrochloride of WX015]
